Numbers after ± are expanded uncertainties.
Conditions: Crystal; DTA

Normal melting temperature: 73.00 ± 1 °C
SMILES: CCOC(=O)CCC[N+]1(C)CCCC1.[Br-] [1-(4-ethoxy-4-oxobutyl)-1-methylpyrrolidinium bromide]
